Strand notation (5' to 3'): a small letter for the sugar, then the base; units joined by * are phosphorothioate-linked, units joined directly phosphodiester-linked; [ ] holds rarer units or linkages, { } end groups; capitals alone tell only the bases. d = 2'-deoxy (DNA); m = 2'-O-methyl; f = 2'-fluoro
Test system: human EPAS1 (Hif2α) cDNA in psiCHECK2 (Renilla luciferase/EPAS1 fusion mRNA) in Hep3B cells
Experiment: Efficacy screen of Hif2α RNAi triggers in vitro, dual-luciferase reporter assay (1 nM and 0.1 nM)
Format: cell-based
Conditions: Hep3B cells co-transfected with EPAS1-psiCHECK2, Renilla luciferase normalized to firefly luciferase
Summary of the method: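 Hep3B cells (10,000/well) co-transfected with chemically modified siRNA triggers at 1 nM and 0.1 nM plus 25 ng EPAS1-psiCHECK2 plasmid via LipoFectamine 2000. Knockdown measured as Renilla luciferase from the EPAS1 fusion mRNA, normalized to constitutive firefly luciferase by dual-luciferase assay.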

| Substance | Relative Rluc-Hif2α (0.1 nM RNAi trigger) | Relative Rluc-Hif2α (1 nM RNAi trigger) |
| --- | --- | --- |
| 2378 (sense fAmAfCmUfAmCfCmAfUmGfAmGfAmUfGmGfUmUfAdT; antisense dTfAmAfCmCfAmUfCmUfCmAfUmGfGmUfAmGfUmUdT*dT; siRNA) [compound 2378] | 0.994 ± 0.246 | 0.734 ± 0.170 |
| 2271 (sense fGmAfAmUfUmCfUmAfCmCfAmUfGmCfGmCfUmAfAdT; antisense dTfUmAfGmCfGmCfAmUfGmGfUmAfGmAfAmUfUmCdT*dT; siRNA) [compound 2271] | 1.056 ± 0.291 | 0.930 ± 0.094 |
| 2333 (sense fGmGfAmCfUmUfAmCfCmUfGmGfCmAfGmAfCmUfAdT; antisense dTfAmGfUmCfUmGfCmCfAmGfGmUfAmAfGmUfCmCdT*dT; siRNA) [compound 2333] | 0.684 ± 0.147 | 0.291 ± 0.019 |
| 2259 (sense fUmCfAmCfCmAfAmCfAmGfAmGfGmCfCmGfUmAfAdT; antisense dTfUmAfCmGfGmCfCmUfCmUfGmUfUmGfGmUfGmAdT*dT; siRNA) [compound 2259] | 0.743 ± 0.086 | 0.836 ± 0.110 |
| 2239 (sense fGmGfCmGfUmCfUmGfAmAfCmGfUmCfUmCfAmAfAdT; antisense dTfUmUfGmAfGmAfCmGfUmUfCmAfGmAfCmGfCmCdT*dT; siRNA) [compound 2239] | 0.225 ± 0.022 | 0.157 ± 0.017 |
| 2257 (sense fGmGfAmUfGmAfAmGfUmGfCmAfCmGfGmUfCmAfAdT; antisense dTfUmGfAmCfCmGfUmGfCmAfCmUfUmCfAmUfCmCdT*dT; siRNA) [compound 2257] | 0.647 ± 0.127 | 0.802 ± 0.044 |
| 2397 (sense fAmCfCmCfUmAfCmCfUmGfUmCfAmAfCmGfUmAfAdT; antisense dTfUmAfCmGfUmUfGmAfCmAfGmGfUmAfGmGfGmUdT*dT; siRNA) [compound 2397] | 0.254 ± 0.048 | 0.119 ± 0.024 |
| 2334 (sense fUmUfUmUfUmCfUmGfAmGfAmUfGmCfUmCfAmCfAdT; antisense dTfGmUfGmAfGmCfAmUfCmUfCmAfGmAfAmAfAmAdT*dT; siRNA) [compound 2334] | 0.672 ± 0.082 | 0.389 ± 0.044 |
| 2331 (sense fGmGfUmGfAmAfCmGfUmGfCmCfCmGfUmGfCmUfAdT; antisense dTfAmGfCmAfCmGfGmGfCmAfCmGfUmUfCmAfCmCdT*dT; siRNA) [compound 2331] | 1.002 ± 0.321 | 0.783 ± 0.080 |
| 2288 (sense fUmAfCmAfAmCfCmCfUmCfGmCfAmAfCmCfUmGfAdT; antisense dTfCmAfGmGfUmUfGmCfGmAfGmGfGmUfUmGfUmAdT*dT; siRNA) [compound 2288] | 0.943 ± 0.029 | 0.932 ± 0.118 |
| 2274 (sense fAmUfGmCfGmCfUmAfGmAfCmUfCmCfGmAfGmAfAdT; antisense dTfUmCfUmCfGmGfAmGfUmCfUmAfGmCfGmCfAmUdT*dT; siRNA) [compound 2274] | 0.870 ± 0.108 | 0.506 ± 0.074 |
| 2388 (sense fCmCfAmAfCmUfAmUfUmUfAmGfUmAfAmGfCmCfAdT; antisense dTfGmGfCmUfUmAfCmUfAmAfAmUfAmGfUmUfGmGdT*dT; siRNA) [compound 2388] | 0.901 ± 0.318 | 0.436 ± 0.021 |
| 2389 (sense fAmAfCmUfAmUfUmUfAmGfUmAfAmGfCmCfCmGfAdT; antisense dTfCmGfGmGfCmUfUmAfCmUfAmAfAmUfAmGfUmUdT*dT; siRNA) [compound 2389] | 1.085 ± 0.307 | 0.820 ± 0.184 |
| 2384 (sense fGmUfAmAfGmAfGmGfGmAfCmGfAmCfAmCfCmUfAdT; antisense dTfAmGfGmUfGmUfCmGfUmCfCmCfUmCfUmUfAmCdT*dT; siRNA) [compound 2384] | 0.533 ± 0.067 | 0.439 ± 0.101 |
| 2347 (sense fUmUfAmUfAmUfCmUfGmGfGmUfUmAfAmGfUmGfAdT; antisense dTfCmAfCmUfUmAfAmCfCmCfAmGfAmUfAmUfAmAdT*dT; siRNA) [compound 2347] | 0.753 ± 0.092 | 0.530 ± 0.040 |
| 2273 (sense fUmCfUmAfCmCfAmUfGmCfGmCfUmAfGmAfCmUfAdT; antisense dTfAmGfUmCfUmAfGmCfGmCfAmUfGmGfUmAfGmAdT*dT; siRNA) [compound 2273] | 0.574 ± 0.033 | 0.588 ± 0.057 |

| Substance | Relative Rluc-Hif2α (0.1 nM RNAi trigger) | Relative Rluc-Hif2α (1 nM RNAi trigger) |
| --- | --- | --- |
| 2282 (sense fCmGfCmAfAmAfGmCfAmUfGmGfGmGfGmCfUmAfAdT; antisense dTfUmAfGmCfCmCfCmCfAmUfGmCfUmUfUmGfCmGdT*dT; siRNA) [compound 2282] | 1.209 ± 0.132 | 0.824 ± 0.155 |
| 2335 (sense fAmGfUmAfCmAfCmAfAmUfUmGfUmUfUmUfAmCfAdT; antisense dTfGmUfAmAfAmAfCmAfAmUfUmGfUmGfUmAfCmUdT*dT; siRNA) [compound 2335] | 0.311 ± 0.032 | 0.104 ± 0.013 |
| 2326 (sense fCmUfAmCfAmGfCmCfUmGfUmCfGmUfCmAfGmCfAdT; antisense dTfGmCfUmGfAmCfGmAfCmAfGmGfCmUfGmUfAmGdT*dT; siRNA) [compound 2326] | 0.660 ± 0.114 | 0.546 ± 0.083 |
| 2297 (sense fCmAfAmUfGmCfAmGfUmAfCmCfCmAfGmAfCmGfAdT; antisense dTfCmGfUmCfUmGfGmGfUmAfCmUfGmCfAmUfUmGdT*dT; siRNA) [compound 2297] | 0.704 ± 0.083 | 0.643 ± 0.028 |
| 2396 (sense fUmUfAmAfCmCfCmUfAmCfCmUfGmUfCmAfAmCfAdT; antisense dTfGmUfUmGfAmCfAmGfGmUfAmGfGmGfUmUfAmAdT*dT; siRNA) [compound 2396] | 1.321 ± 0.070 | 0.939 ± 0.299 |
| 2309 (sense fUmUfUmUfGmGfGmCfCmCfAmCfAmAfAmGfUmGfAdT; antisense dTfCmAfCmUfUmUfGmUfGmGfGmCfCmCfAmAfAmAdT*dT; siRNA) [compound 2309] | 0.823 ± 0.096 | 1.081 ± 0.135 |
| 2313 (sense fAmGfUmGfGmGfCmCfGmUfCmGfGmGfGmAfUmCfAdT; antisense dTfGmAfUmCfCmCfCmGfAmCfGmGfCmCfCmAfCmUdT*dT; siRNA) [compound 2313] | 0.853 ± 0.133 | 0.886 ± 0.243 |
| 2304 (sense fAmUfGmCfCmGfGmAfAmGfCmAfAmAfGmCfAmUfAdT; antisense dTfAmUfGmCfUmUfUmGfCmUfUmCfCmGfGmCfAmUdT*dT; siRNA) [compound 2304] | 0.528 ± 0.116 | 0.302 ± 0.025 |
| 2285 (sense fCmAfUmCfUmAfCmAfAmCfCmCfUmCfGmCfAmAfAdT; antisense dTfUmUfGmCfGmAfGmGfGmUfUmGfUmAfGmAfUmGdT*dT; siRNA) [compound 2285] | 1.109 ± 0.247 | 0.723 ± 0.088 |
| 2298 (sense fAmUfGmCfAmGfUmAfCmCfCmAfGmAfCmGfGmAfAdT; antisense dTfUmCfCmGfUmCfUmGfGmGfUmAfCmUfGmCfAmUdT*dT; siRNA) [compound 2298] | 0.729 ± 0.092 | 0.695 ± 0.037 |
| 2286 (sense fAmUfCmUfAmCfAmAfCmCfCmUfCmGfCmAfAmCfAdT; antisense dTfGmUfUmGfCmGfAmGfGmGfUmUfGmUfAmGfAmUdT*dT; siRNA) [compound 2286] | 1.291 ± 0.367 | 0.878 ± 0.078 |
| 2308 (sense fAmUfUmUfUmGfGmGfCmCfCmAfCmAfAmAfGmUfAdT; antisense dTfAmCfUmUfUmGfUmGfGmGfCmCfCmAfAmAfAmUdT*dT; siRNA) [compound 2308] | 0.799 ± 0.084 | 0.998 ± 0.059 |
| 2264 (sense fCmAfGmAfAmCfUmGfAmUfUmGfGmUfUmAfCmCfAdT; antisense dTfGmGfUmAfAmCfCmAfAmUfCmAfGmUfUmCfUmGdT*dT; siRNA) [compound 2264] | 0.381 ± 0.023 | 0.183 ± 0.019 |
| 2413 (sense fUmAfUmAfAmCfUmGfUmAfUmGfGmGfAmGfCmUfAdT; antisense dTfAmGfCmUfCmCfCmAfUmAfCmAfGmUfUmAfUmAdT*dT; siRNA) [compound 2413] | 0.675 ± 0.104 | 0.317 ± 0.055 |
| 2337 (sense fAmCfUmAfAmAfAmAfGmAfUmUfCmCfUmCfGmUfAdT; antisense dTfAmCfGmAfGmGfAmAfUmCfUmUfUmUfUmAfGmUdT*dT; siRNA) [compound 2337] | 0.334 ± 0.066 | 0.131 ± 0.033 |
| 2272 (sense fAmAfUmUfCmUfAmCfCmAfUmGfCmGfCmUfAmGfAdT; antisense dTfCmUfAmGfCmGfCmAfUmGfGmUfAmGfAmAfUmUdT*dT; siRNA) [compound 2272] | 1.028 ± 0.281 | 0.864 ± 0.197 |

From US9976141B2, “Compositions and methods for inhibiting gene expression of Hif2alpha” (Arrowhead Madison Inc., priority 2015, dated 2018)
